{"source": "patent EP0384722A1", "about": "“Chemical compositions” (PITMAN-MOORE LIMITED, priority 1989, dated 1990)", "assay": "Bioavailability in dogs of two injectable formulations (GF s/c, OS i/m) of Compound A and Sulphadimethoxine (serum levels)", "type": "in vivo", "settings": "30mg total a.i./kg", "protocol": "GF = Solution in glycofurol of Compound A 2% w/v and sulphadimethoxine (SDM), 10% w/v; OS = Suspension in Miglyol 812 of Compound A, 2% w/v and SDM, 10% w/v\nSix adult beagles (three male, three female, including Dogs 1 to 4 of Example 1) and six adult male cats, housed in Coopers' kennels were in all cases given a single injection at 30mg. total a.i./kg. bodyweight, i.e. 1ml./4kg. The glycofurol solution (GF) was injected s/c in the dorsal neck region and the oily suspension (OS) was injected i/m in the quadriceps (anterior thigh) muscles.\nBlood samples (jugular venous samples or on some occasions from the cats, cephalic vein samples) were collected before and after injection at the times indicated in Tables 5 to 8).\nA standard well-plate bio-assay method was used for Compound A, SDM being estimated by the Bratton-Marshall method. (The bio-assay method cannot distinguish between parent compound and any active metabolites present, but the results are expressed as mg/L Compound A).", "data": [{"smiles": "COc1cc(NS(=O)(=O)c2ccc(N)cc2)nc(OC)n1", "note": "[SDM, sulphadimethoxine]", "values": [{"measurement": "Serum concentrations of SDM", "setting": "dog No.1, GF s/c, 0 hours p.i.", "value": 0, "unit": "mg/L"}, {"measurement": "Serum concentrations of SDM", "setting": "dog No.1, GF s/c, 1 hours p.i.", "value": 82, "unit": "mg/L"}, {"measurement": "Serum concentrations of SDM", "setting": "dog No.1, GF s/c, 4 hours p.i.", "value": 95, "unit": "mg/L"}, {"measurement": "Serum concentrations of SDM", "setting": "dog No.1, GF s/c, 7 hours p.i.", "value": 99, "unit": "mg/L"}, {"measurement": "Serum concentrations of SDM", "setting": "dog No.1, GF s/c, 24 hours p.i.", "value": 47, "unit": "mg/L"}, {"measurement": "Serum concentrations of SDM", "setting": "dog No.1, GF s/c, 28 hours p.i.", "value": 34, "unit": "mg/L"}, {"measurement": "Serum concentrations of SDM", "setting": "dog No.1, GF s/c, 31 hours p.i.", "value": 30, "unit": "mg/L"}, {"measurement": "Serum concentrations of SDM", "setting": "dog No.1, GF s/c, 48 hours p.i.", "value": 24, "unit": "mg/L"}, {"measurement": "Serum concentrations of SDM", "setting": "dog No.1, GF s/c, 55 hours p.i.", "value": 17, "unit": "mg/L"}, {"measurement": "Serum concentrations of SDM", "setting": "dog No.1, GF s/c, 72 hours p.i.", "value": 14, "unit": "mg/L"}, {"measurement": "Serum concentrations of SDM", "setting": "dog No.2, OS i/m, 0 hours p.i.", "value": 0, "unit": "mg/L"}, {"measurement": "Serum concentrations of SDM", "setting": "dog No.2, OS i/m, 1 hours p.i.", "value": 5, "unit": "mg/L"}, {"measurement": "Serum concentrations of SDM", "setting": "dog No.2, OS i/m, 4 hours p.i.", "value": 23, "unit": "mg/L"}, {"measurement": "Serum concentrations of SDM", "setting": "dog No.2, OS i/m, 7 hours p.i.", "value": 35, "unit": "mg/L"}, {"measurement": "Serum concentrations of SDM", "setting": "dog No.2, OS i/m, 24 hours p.i.", "value": 34, "unit": "mg/L"}, {"measurement": "Serum concentrations of SDM", "setting": "dog No.2, OS i/m, 28 hours p.i.", "value": 31, "unit": "mg/L"}, {"measurement": "Serum concentrations of SDM", "setting": "dog No.2, OS i/m, 31 hours p.i.", "value": 29, "unit": "mg/L"}, {"measurement": "Serum concentrations of SDM", "setting": "dog No.2, OS i/m, 48 hours p.i.", "value": 35, "unit": "mg/L"}, {"measurement": "Serum concentrations of SDM", "setting": "dog No.2, OS i/m, 55 hours p.i.", "value": 27, "unit": "mg/L"}, {"measurement": "Serum concentrations of SDM", "setting": "dog No.2, OS i/m, 72 hours p.i.", "value": 6, "unit": "mg/L"}, {"measurement": "Serum concentrations of SDM", "setting": "dog No.3, GF s/c, 0 hours p.i.", "value": 0, "unit": "mg/L"}, {"measurement": "Serum concentrations of SDM", "setting": "dog No.3, GF s/c, 1 hours p.i.", "value": 21, "unit": "mg/L"}, {"measurement": "Serum concentrations of SDM", "setting": "dog No.3, GF s/c, 4 hours p.i.", "value": 90, "unit": "mg/L"}, {"measurement": "Serum concentrations of SDM", "setting": "dog No.3, GF s/c, 7 hours p.i.", "value": 99, "unit": "mg/L"}, {"measurement": "Serum concentrations of SDM", "setting": "dog No.3, GF s/c, 24 hours p.i.", "value": 51, "unit": "mg/L"}, {"measurement": "Serum concentrations of SDM", "setting": "dog No.3, GF s/c, 28 hours p.i.", "value": 40, "unit": "mg/L"}, {"measurement": "Serum concentrations of SDM", "setting": "dog No.3, GF s/c, 31 hours p.i.", "value": 30, "unit": "mg/L"}, {"measurement": "Serum concentrations of SDM", "setting": "dog No.3, GF s/c, 48 hours p.i.", "value": 19, "unit": "mg/L"}, {"measurement": "Serum concentrations of SDM", "setting": "dog No.3, GF s/c, 55 hours p.i.", "value": 12, "unit": "mg/L"}, {"measurement": "Serum concentrations of SDM", "setting": "dog No.3, GF s/c, 72 hours p.i.", "value": 21, "unit": "mg/L"}, {"measurement": "Serum concentrations of SDM", "setting": "dog No.4, OS i/m, 0 hours p.i.", "value": 0, "unit": "mg/L"}, {"measurement": "Serum concentrations of SDM", "setting": "dog No.4, OS i/m, 1 hours p.i.", "value": 7, "unit": "mg/L"}, {"measurement": "Serum concentrations of SDM", "setting": "dog No.4, OS i/m, 4 hours p.i.", "value": 26, "unit": "mg/L"}, {"measurement": "Serum concentrations of SDM", "setting": "dog No.4, OS i/m, 7 hours p.i.", "value": 36, "unit": "mg/L"}, {"measurement": "Serum concentrations of SDM", "setting": "dog No.4, OS i/m, 24 hours p.i.", "value": 38, "unit": "mg/L"}, {"measurement": "Serum concentrations of SDM", "setting": "dog No.4, OS i/m, 28 hours p.i.", "value": 37, "unit": "mg/L"}, {"measurement": "Serum concentrations of SDM", "setting": "dog No.4, OS i/m, 31 hours p.i.", "value": 35, "unit": "mg/L"}, {"measurement": "Serum concentrations of SDM", "setting": "dog No.4, OS i/m, 48 hours p.i.", "value": 26, "unit": "mg/L"}, {"measurement": "Serum concentrations of SDM", "setting": "dog No.4, OS i/m, 55 hours p.i.", "value": 19, "unit": "mg/L"}, {"measurement": "Serum concentrations of SDM", "setting": "dog No.4, OS i/m, 72 hours p.i.", "value": 10, "unit": "mg/L"}, {"measurement": "Serum concentrations of SDM", "setting": "dog No.5, OS i/m, 0 hours p.i.", "value": 0, "unit": "mg/L"}, {"measurement": "Serum concentrations of SDM", "setting": "dog No.5, OS i/m, 1 hours p.i.", "value": 12, "unit": "mg/L"}, {"measurement": "Serum concentrations of SDM", "setting": "dog No.5, OS i/m, 4 hours p.i.", "value": 43, "unit": "mg/L"}, {"measurement": "Serum concentrations of SDM", "setting": "dog No.5, OS i/m, 7 hours p.i.", "value": 53, "unit": "mg/L"}, {"measurement": "Serum concentrations of SDM", "setting": "dog No.5, OS i/m, 24 hours p.i.", "value": 42, "unit": "mg/L"}, {"measurement": "Serum concentrations of SDM", "setting": "dog No.5, OS i/m, 28 hours p.i.", "value": 41, "unit": "mg/L"}, {"measurement": "Serum concentrations of SDM", "setting": "dog No.5, OS i/m, 31 hours p.i.", "value": 43, "unit": "mg/L"}, {"measurement": "Serum concentrations of SDM", "setting": "dog No.5, OS i/m, 48 hours p.i.", "value": 34, "unit": "mg/L"}, {"measurement": "Serum concentrations of SDM", "setting": "dog No.5, OS i/m, 55 hours p.i.", "value": 25, "unit": "mg/L"}, {"measurement": "Serum concentrations of SDM", "setting": "dog No.5, OS i/m, 72 hours p.i.", "value": 20, "unit": "mg/L"}, {"measurement": "Serum concentrations of SDM", "setting": "dog No.6, GF s/c, 0 hours p.i.", "value": 0, "unit": "mg/L"}, {"measurement": "Serum concentrations of SDM", "setting": "dog No.6, GF s/c, 1 hours p.i.", "value": 26, "unit": "mg/L"}, {"measurement": "Serum concentrations of SDM", "setting": "dog No.6, GF s/c, 4 hours p.i.", "value": 79, "unit": "mg/L"}, {"measurement": "Serum concentrations of SDM", "setting": "dog No.6, GF s/c, 7 hours p.i.", "value": 94, "unit": "mg/L"}, {"measurement": "Serum concentrations of SDM", "setting": "dog No.6, GF s/c, 24 hours p.i.", "value": 56, "unit": "mg/L"}, {"measurement": "Serum concentrations of SDM", "setting": "dog No.6, GF s/c, 28 hours p.i.", "value": 47, "unit": "mg/L"}, {"measurement": "Serum concentrations of SDM", "setting": "dog No.6, GF s/c, 31 hours p.i.", "value": 45, "unit": "mg/L"}, {"measurement": "Serum concentrations of SDM", "setting": "dog No.6, GF s/c, 48 hours p.i.", "value": 34, "unit": "mg/L"}, {"measurement": "Serum concentrations of SDM", "setting": "dog No.6, GF s/c, 55 hours p.i.", "value": 21, "unit": "mg/L"}, {"measurement": "Serum concentrations of SDM", "setting": "dog No.6, GF s/c, 72 hours p.i.", "value": 10, "unit": "mg/L"}]}]}
